According to patent US11180573B2, “Extracellular matrix-producing composition using MAST4 gene and preparation method therefor” (priority 2017, dated 2021):

System: human primary chondrocytes
Experiment: TGF-β1 treatment of human primary chondrocytes, expression by RT-PCR and Western blotting
Format: cell-based
Method: In detail, the human primary chondrocytes of Example 4-1 were treated with TGF-β1, and an expression level thereof was measured by RT-PCR as in Examples 1-2 and 1-3 and Western blotting.

[1] = co-treatment with TGF-β1 (5 ng/ml), compared with single treatment with TGF-β1, FIG. 9B
[2] = TGF-β1 5 ng/ml for 24 hours, 48 hours, or 72 hours, FIG. 9

| Molecule | Acan expression increased by TGF-β1 [1] | inhibitory effect on MAST4 expression (of TGF-β1) [1] | MAST4 expression [2] | expression of extracellular matrix factors [2] |
| --- | --- | --- | --- | --- |
| Cc1cccc(-c2[nH]c(CNc3ccccc3F)nc2-c2ccc3ncnn3c2)n1 [TEW-7197] | suppressed | decreased | – | – |
| TGF-β1: growth factor that reduces MAST4 expression in human chondrocytes | – | – | suppressed | increased |
